Data on four molecules can be found in US20260167637A1, “NLRP3 INFLAMMASOME INHIBITOR AND USE THEREOF” (TransThera Sciences (Nanjing), Inc., priority 2022, published 2026).

As usually defined, the IC50 is the concentration needed to halve the response being measured. By microsomal CLint is commonly meant a measure of how fast metabolising enzymes remove a compound, apart from limits set by blood flow. High values mean faster metabolism, low ones greater metabolic stability.

Series [1] is described as follows: Stability in canine liver microsomes. The class given is in vitro ADME. To be noted: canine liver microsomes 0.5 mg protein/mL, 1 μM test substance, β-NADPH 1 mM, 37° C.; for microsomal CLint at 1 μM / half-life at 1 μM: dog; for half-life at 1 μM: read-out: Canine t1/2. In outline: (§1)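 Compounds (10 μM working solution; 0.1% DMSO) were incubated at 37 °C with dog or rat liver microsomes in phosphate buffer with 3 mM MgCl2, with or without NADPH, sampled to 60 min. Remaining compound was measured by LC/MS/MS; t1/2 and CL came from first-order kinetics.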
For orientation: Microsomes from liver hold many membrane-bound enzymes, among them those of drug oxidation.

Series [2] concerns the target T1, THP-1 cell NLRP3 (Homo sapiens, UniProt Q96P20).
T1 construct: endogenous in cells; host or cells: THP-1 cells, PMA-differentiated, stimulated with LPS and nigericin
In words: Inhibitory activity against cell NLRP3 inflammasomes in THP-1 cells (LPS + nigericin, ELISA of supernatant). In kind it is cell-based. To be noted: PMA-differentiated THP-1 cells, LPS 500 ng/mL 3 h, compound 1 h, nigericin 30 min; human IL-10 (so in the source) in supernatant by ELISA. The method in brief:
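PMA-differentiated (10 ng/mL, 16 h) THP-1 cells primed with 500 ng/mL LPS for 3 h in serum-free medium, then compound for 1 h (DMSO stock diluted 1:1000). Nigericin added for 30 min at 37 °C; IL-1β (printed as IL-10) in supernatant measured by ELISA.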
Background: ELISA stands for enzyme-linked immunosorbent assay.

The nature of series [3]: Stability in rat liver microsomes. In kind it is in vitro ADME. To be noted: rat liver microsomes 0.5 mg protein/mL, 1 μM test substance, β-NADPH 1 mM, 37° C.; for half-life at 1 μM: read-out: Rat t1/2. The method in brief: as §1

T1 sequence (Q96P20 whole entry): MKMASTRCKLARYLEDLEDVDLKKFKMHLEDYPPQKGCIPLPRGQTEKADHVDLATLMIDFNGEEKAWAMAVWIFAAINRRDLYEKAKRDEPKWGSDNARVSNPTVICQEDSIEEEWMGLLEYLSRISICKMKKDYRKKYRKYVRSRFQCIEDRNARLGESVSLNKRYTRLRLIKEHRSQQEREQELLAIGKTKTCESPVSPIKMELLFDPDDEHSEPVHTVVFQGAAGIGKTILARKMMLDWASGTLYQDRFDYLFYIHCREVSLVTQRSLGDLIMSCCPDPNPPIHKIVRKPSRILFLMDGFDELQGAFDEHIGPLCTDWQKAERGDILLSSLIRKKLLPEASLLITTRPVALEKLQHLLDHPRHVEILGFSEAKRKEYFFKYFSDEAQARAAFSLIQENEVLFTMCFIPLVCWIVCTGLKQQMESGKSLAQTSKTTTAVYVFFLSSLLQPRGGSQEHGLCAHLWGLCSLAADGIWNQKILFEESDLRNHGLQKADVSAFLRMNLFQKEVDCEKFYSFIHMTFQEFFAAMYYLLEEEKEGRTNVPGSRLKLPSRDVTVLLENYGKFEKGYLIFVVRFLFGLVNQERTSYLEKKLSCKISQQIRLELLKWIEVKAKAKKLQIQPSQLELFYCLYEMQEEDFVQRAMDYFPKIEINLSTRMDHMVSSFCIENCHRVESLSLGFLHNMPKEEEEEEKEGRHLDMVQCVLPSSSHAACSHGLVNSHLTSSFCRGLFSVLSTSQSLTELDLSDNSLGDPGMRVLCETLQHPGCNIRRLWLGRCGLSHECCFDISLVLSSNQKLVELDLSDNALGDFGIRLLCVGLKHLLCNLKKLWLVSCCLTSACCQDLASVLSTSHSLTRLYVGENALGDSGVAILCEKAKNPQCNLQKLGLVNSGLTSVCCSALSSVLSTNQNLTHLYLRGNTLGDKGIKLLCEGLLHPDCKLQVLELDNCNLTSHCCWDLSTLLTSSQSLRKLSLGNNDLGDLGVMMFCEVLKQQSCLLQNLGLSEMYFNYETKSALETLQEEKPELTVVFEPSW

With `C#Cc1ccc(-c2nnc(N[C@@H]3CCCN(C)C3)c(=O)n2C)c(O)c1` [Compound 23, (R)-3-(4-ethynyl-2-hydoxyphenyl)-4-methyl-6-((1-methylpiperidin-3-yl)amino)-1,2,4-triazin-5(4H)-one], the “Canine t1/2” value in series [1] is listed as “→∞”. In addition, in series [2], the half-maximal inhibitory concentration (IC50) stood at 2.4 nM. Also, in series [3], the “Rat t1/2” value is given as “→∞”.
Turning to `C#Cc1ccc(-c2nnc(N[C@@H]3CCCN(CCO)C3)cc2C2CC2)c(O)c1` [Compound 45, (R)-2-(4-Cyclopropyl-6-((1-(2-hydroxyethyl)piperidin-3-yl)amino)pyridazin-3-yl)-5-ethynylphenol], the intrinsic clearance (microsomal CLint) at 1 μM stood at 1.4 µL/min/mg in series [1] and 6.8 µL/min/mg in series [3]. The half-life at 1 μM stood at 16.5 h in series [1] and 3.4 h in series [3]. The half-maximal inhibitory concentration (IC50) in series [2] was 0.7 nM.
The corresponding values for `C#Cc1ccc(-c2nnc(N[C@@H]3CCCN(C)C3)cc2C(C)C)c(O)c1` [Compound 81, (R)-5-ethynyl-2-(4-isopropyl-6-((1-methylpiperidin-3-yl)amino)pyridazin-3-yl)phenol] are 5 µL/min/mg, 3 µL/min/mg, 4.62 h, 7.7 h and 1.1 nM.
In the same order, the values of `C#Cc1ccc(-c2nnc(N[C@@H]3CCCN(C)C3)c(C#N)c2C)c(O)c1` [Compound 103, (R)-6-(4-ethynyl-2-hydroxyphenyl)-5-methyl-3-((1-methylpiperidin-3-yl)amino)pyridazine-4-carbonitrile] are 8.4 µL/min/mg, 8.2 µL/min/mg, 2.75 h, 2.82 h and 0.6 nM.
